Results from patent publication US20060069132A1, “Azolecarboxamide herbicides” (priority 2004, published 2006).

Legend:
chickweed = assay: Test C postemergence herbicide test; format: in vivo, Stellaria media; details: for Chickweed plant response rating: 500 g ai/ha
Description: At the same time, plants selected from these crop and weed species and also winter barley (Hordeum vulgare L.), blackgrass (Alopecurus myosuroides Huds.), canarygrass (Phalaris minor Retz.), chickweed (Stellaria media (L.) Vill.), downy bromegrass (Bromus tectorum L.), green foxtail (Setaria viridis (L.) Beauv.), Italian ryegrass (Lolium multiflorum Lam.), wheat (Triticum aestivum L.), wild oat (Avenafatua L.) and windgrass (Apera spica-venti (L.) Beauv.) were treated with postemergence applications of some of the test chemicals formulated in the same manner. Plants ranged in height from 2 to 18 cm (1- to 4-leaf stage) for postemergence treatments. Plant species in the flooded paddy test consisted of rice (Oryza sativa), smallflower umbrella sedge (Cyperus difformis L.), ducksalad (Heteranthera limosa (Sw.) Willd.) and barnyardgrass (Echinochloa crus-galli (L.) Beauv.) grown to the 2-leaf stage for testing. Treated plants and controls were maintained in a greenhouse for 12 to 14 days, after which time all species were compared to controls and visually evaluated. Plant response ratings, summarized in Table C, are based on a scale of 0 to 100 where 0 is no effect and 100 is complete control. A dash (-) response means no test result.

winter barley = assay: Test C postemergence herbicide test; format: in vivo, Hordeum vulgare
How it was run: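 Postemergence sprays were applied to plants 2 to 18 cm tall (1- to 4-leaf stage); in the flooded paddy test, barnyardgrass was grown to the 2-leaf stage. After 12 to 14 days in a greenhouse, injury was visually rated against untreated controls on a 0–100 scale (100 = complete control).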

[1] = Postemergence, 250 g ai/ha, scale 0 to 100, 0 no effect, 100 complete control
[2] = postemergence, 125 g ai/ha, scale 0 to 100
[3] = postemergence, 62 g ai/ha, scale 0 to 100
[4] = Postemergence, 125 g ai/ha, scale 0 to 100, 0 no effect, 100 complete control
[5] = postemergence, 31 g ai/ha, scale 0 to 100
[6] = postemergence, 62 g ai/ha, scale 0 to 100 (0 no effect, 100 complete control)
[7] = Postemergence, 500 g ai/ha, scale 0 to 100

SMILES | Chickweed plant response rating (chickweed; Postemergence, scale 0 to 100) | Plant response rating, Chickweed (chickweed; [1]) | Plant response rating, Chickweed (chickweed; [2]) | Plant response rating, Chickweed (chickweed; [3]) | Plant response rating, Barley, Winter (winter barley; [4]) | Plant response rating, Barley, Winter (winter barley; [6]) | Plant response rating, Barley, Winter (winter barley; [1]) | further results
C=CCNC(=O)c1cccc(NC(=O)c2cc(C(C)(C)C)nn2C)n1 [Compound 318] | 80 | 10 | 0 | 0 | – | – | – | –
CCn1nc(C(C)(C)C)cc1C(=O)Nc1cccc(C(=O)NCC2CC2)c1 [Compound 62] | – | – | – | – | 10 | 10 | – | Barley, Winter plant response rating (winter barley; Postemergence, 250 g ai/ha, scale 0 to 100): 10; Plant response rating, Barley, Winter (winter barley; [5]): 0
CCn1nc(C(C)(C)C)cc1C(=O)Nc1cc(OC(F)(F)F)ccc1F [Compound 338] | – | – | – | – | 30 | 20 | 35 | Barley, Winter plant response rating (winter barley; [7]): 40
CCNC(=O)c1cccc(NC(=O)c2cc(C(C)(C)C)nn2CCF)c1 [Compound 35] | – | – | – | 80 | – | – | – | Plant response rating, Chickweed (chickweed; [4]): 90; Plant response rating, Chickweed (chickweed; postemergence, 16 g ai/ha, scale 0 to 100): 70; Plant response rating, Chickweed (chickweed; [5]): 70
C#CCNC(=O)c1cccc(NC(=O)c2cc(C(C)(C)C)nn2CC)n1 [Compound 147] | 100 | 90 | 30 | 5 | – | – | – | –
CCn1nc(C(C)(C)C)cc1C(=O)Nc1cccc(C(=O)NC2CC2)c1 [Compound 44] | – | 90 | – | 90 | – | – | – | Plant response rating, Chickweed (chickweed; [4]): 90
CCOC(=O)c1cccc(NC(=O)c2cc(C(C)(C)C)nn2CC)c1 [Compound 80, ethyl 3-[[[3-(1,1-dimethylethyl)-1-ethyl-1H-pyrazol-5-yl]carbonyl]-amino]benzoate] | – | 100 | 100 | 100 | – | – | – | Plant response rating, Chickweed (chickweed; [5]): 90
CCNC(=O)c1cccc(NC(=O)c2cc(C(C)(C)C)nn2CC(F)(F)F)c1 [Compound 31] | – | 100 | – | 90 | – | – | – | Plant response rating, Chickweed (chickweed; [4]): 90
CCOC(=O)c1cccc(NC(=O)c2cc(C3(C)CC3)nn2CC)c1 [Compound 295] | – | 100 | 100 | 100 | 35 | 35 | 35 | Plant response rating, Barley, Winter (winter barley; [5]): 35; Plant response rating, Chickweed (chickweed; [5]): 85
CCn1nc(C2(C)CC2)cc1C(=O)Nc1cc(C(=O)N2CC=CC2)ccc1F [Compound 301] | – | – | – | – | 30 | 30 | 30 | Barley, Winter plant response rating (winter barley; [7]): 40
CCCCOc1cccc(NC(=O)c2cc(C(C)(C)C)nn2CC)c1 [Compound 137] | – | – | – | – | 20 | 10 | 20 | Barley, Winter plant response rating (winter barley; [7]): 30
CCc1nc(C(C)(C)C)sc1C(=O)Nc1cccc(C(=O)NCC2CC2)c1 [Compound 212] | 100 | 80 | 80 | 60 | – | – | – | –
CCn1nc(C(C)(C)C)cc1C(=O)Nc1cccc(C(=O)OCCF)c1 [Compound 82, 2-fluoroethyl 3-[[[3-(1,1-dimethylethyl)-1-ethyl-1H-pyrazol-5-yl]-carbonyl]amino]benzoate] | 100 | 100 | 95 | 70 | – | – | – | –
CCn1nc(C(C)(C)C)cc1C(=O)Nc1cccc(OS(=O)(=O)CC)c1 [Compound 408] | – | – | – | – | 30 | 30 | 35 | Barley, Winter plant response rating (winter barley; [7]): 40
C=Cn1nc(C(C)(C)C)cc1C(=O)Nc1cccc(C(=O)N(CC)CC)c1 [Compound 34] | 100 | 60 | – | – | – | – | – | Plant response rating, Chickweed (chickweed; [4]): 50
